The text below walks through data of patent publication US20250108119A1, “NOVEL STEROID PAYLOADS, STEROID LINKERS, ADCs CONTAINING AND USE THEREOF” (IMMUNEXT, INC., priority 2021, published 2025).

Experiment [1] has as its system LPS stimulated human PBMCs. Briefly: LPS stimulated human PBMC, IL-1β and IL-6 ELISA. The class given is cell-based. An outline of the steps: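 Human PBMC (1-2 healthy donors), 150,000 cells/well, treated with test agents at 1,000 nM down to 1 nM or 0.2 nM, in duplicate. LPS at 1 ng/ml added immediately after free payload or 4 h after conjugates; IL-1β and IL-6 in supernatants measured by ELISA.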
Background: In an ELISA, binding on a coated surface is turned into a signal by an enzyme label.

The next experiment relates to human PBMC. The experiment can be described thus: Cytokine production (IL-1β, IL-6) at 24 hr by human PBMC incubated with 1 ng/mL LPS. In kind it is cell-based. The note with it: anti-VISTA conjugates, serial dilutions with respect to total ADC concentration (20-0.003 μg/mL), equivalent or reduced DAR. An outline of the steps:
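Human PBMC were stimulated with 1 ng/mL LPS together with serial dilutions of steroid payloads or glucocorticoid conjugates, spanning up to 8,000 nM down to 0.032 nM depending on the series. IL-1β and IL-6 were measured at 24 hr from technical duplicates, with 1-2 donors. Values above the ULOQ were extrapolated.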

`C[C@]12C=CC(=O)C=C1CC[C@@H]1[C@@H]2[C@@H](O)C[C@@]2(C)[C@H]1C[C@H]1O[C@@H](c3ccc(CC4CC5(C4)CC(NC(=O)[C@H](CCC(=O)O)NC(=O)CNC(=O)CBr)C5)cc3)O[C@]12C(=O)CO` (stereo partly drawn) [INX V, (S)-4-(2-(2-bromoacetamido)acetamido)-5-((6-(4-((6aR,6bS,7S,8aS,8bS,10R,11aR,12aS,12bS)-7-hydroxy-8b-(2-hydroxyacetyl)-6a,8a-dimethyl-4-oxo-2,4,6a,6b,7,8,8a,8b,11a,12,12a,12b-dodecahydro-1H-naphtho[2′,1′:4,5]indeno[1,2-d][1,3]dioxol-10-yl)benzyl)spiro[3.3]heptan-2-yl)amino)-5-oxopentanoic acid]: the “potency of conjugated linker payloads over INX J (conclusions)” value in experiment [1] is “enhanced potency”. Further, the “potency in reducing IL-1β production” value with human PBMC was “enhanced potency”.
